Tested on: mouse primary cortical neurons
Test: Cell volume measurement (calcein-AM) under hyperosmotic stress, primary cortical neurons

## Cc1cc(C(C#N)c2ccc(Cl)cc2)c(Cl)cc1NC(=O)c1cc(Cl)ccc1O (centres unmarked) [ZT-1a, 5-chloro-N-(5-chloro-4-((4-chlorophenyl)(cyano)methyl)-2-methylphenyl)-2-hydroxybenzamide]
Fig 5b trace, Time 16.0047
  Cell water (relative change): 0.433 relative change
Fig 5b trace, Time 17.0047
  Cell water (relative change): 0.4137 relative change
Fig 5b trace, Time 18.0047
  Cell water (relative change): 0.4143 relative change
Fig 5b trace, Time 19.0049
  Cell water (relative change): 0.386 relative change
Fig 5b trace, Time 20.0049
  Cell water (relative change): 0.3846 relative change
Fig 5b trace, Time 21.0048
  Cell water (relative change): 0.3598 relative change
Fig 5b trace, Time 22.0048
  Cell water (relative change): 0.3067 relative change
Fig 5b trace, Time 23.005
  Cell water (relative change): 0.3082 relative change
Fig 5b trace, Time 24.0048
  Cell water (relative change): 0.3082 relative change
Fig 5b trace, Time 25.005
  Cell water (relative change): 0.2995 relative change
Fig 5b trace, Time 26.0053
  Cell water (relative change): 0.543 relative change
Fig 5b trace, Time 27.005
  Cell water (relative change): 0.6295 relative change
Fig 5b trace, Time 28.005
  Cell water (relative change): 0.7317 relative change
Fig 5b trace, Time 29.0051
  Cell water (relative change): 0.8403 relative change
Fig 5b trace, Time 30.005
  Cell water (relative change): 0.9491 relative change
Fig 5b trace, Time 31.005
  Cell water (relative change): 1.001 relative change
Fig 5b trace, Time 32.005
  Cell water (relative change): 1.095 relative change
Fig 5b trace, Time 33.0052
  Cell water (relative change): 1.18 relative change
Fig 5b trace, Time 34.0052
  Cell water (relative change): 1.2174 relative change
Fig 5b trace, Time 35.0052
  Cell water (relative change): 1.246 relative change
Time 1.0036
  Cell water (relative change): 0.9411
Time 2.0038
  Cell water (relative change): 0.9678
Time 3.0038
  Cell water (relative change): 0.9873
Time 4.0037
  Cell water (relative change): 1.0365
Time 5.0037
  Cell water (relative change): 1.0673
Time 6.0037
  Cell water (relative change): 0.3755
Time 7.0039
  Cell water (relative change): 0.3590
Time 8.0040
  Cell water (relative change): 0.3612
Time 9.0042
  Cell water (relative change): 0.3419
Time 10.0039
  Cell water (relative change): 0.3164
Time 11.0039
  Cell water (relative change): 0.3660
Time 12.0039
  Cell water (relative change): 0.3218
Time 13.0041
  Cell water (relative change): 0.3220
Time 14.0041
  Cell water (relative change): 0.3646
Time 15.0040
  Cell water (relative change): 0.4243
Time 16.0040
  Cell water (relative change): 0.3424
Time 17.0040
  Cell water (relative change): 0.4003
Time 18.0045
  Cell water (relative change): 0.3516
Time 19.0042
  Cell water (relative change): 0.3431
Time 20.0042
  Cell water (relative change): 0.3283
Time 21.0042
  Cell water (relative change): 0.3207
Time 22.0041
  Cell water (relative change): 0.3314
Time 23.0044
  Cell water (relative change): 0.2994
Time 24.0044
  Cell water (relative change): 0.3371
Time 25.0043
  Cell water (relative change): 0.3486
Time 26.0043
  Cell water (relative change): 0.4588
Time 27.0043
  Cell water (relative change): 0.5973
Time 28.0045
  Cell water (relative change): 0.7262
Time 29.0044
  Cell water (relative change): 0.8045
Time 30.0044
  Cell water (relative change): 0.9325
Time 31.0046
  Cell water (relative change): 1.0105
Time 32.0046
  Cell water (relative change): 1.1112
Time 33.0046
  Cell water (relative change): 1.1274
Time 34.0045
  Cell water (relative change): 1.2089
Time 35.0045
  Cell water (relative change): 1.2137
Hyperosmotic stress 370 mOsm, ZT-1a 3 μM, BMT 10 μM
  regulatory volume increase (RVI) response of primary cortical neurons: no RVI response
Hypertonic 370 mOsm/kg H2O, earlier manuscript version quoted in peer-review file
  cell shrinkage of primary cortical neurons: 87%
Hypertonic stress, earlier manuscript version quoted in peer-review file
  initial rate of cell shrinkage: 29 ± 9 % vol/min
hypertonicity-mediated osmotic shrinkage, three cultures
  neurons exhibiting RVI / cells analysed: 0/49

— PMC6946680, “Modulation of brain cation-Cl^− cotransport via the SPAK kinase inhibitor ZT-1a” (Nature Communications, 2020)
